The values below come from PMC9780064, “Structural analysis of cannabinoids against EGFR-TK leads a novel target against EGFR-driven cell lines” (Current Research in Pharmacology and Drug Discovery, 2022).

The structures appear in SMILES notation.

Assay [1] addresses T1, EGFR-TK (tyrosine kinase domain of EGFR) (Homo sapiens, UniProt P00533).
T1 construct: cloned into pCold I, expressed in E. coli Rosetta (DE3); DEAE, Resource Q and Superdex 200 purification; immobilised by amine coupling for SPR
Put plainly: SPR (OpenSPR), immobilised EGFR-TK, […] Langmuir kinetic fit. Type of assay: binding.

The target in assay [2] is T1, EGFR-TK (tyrosine kinase domain of EGFR). The experiment in a line: ADP-Glo kinase assay, poly(Glu:Tyr) substrate. Type of assay: biochemical. Conditions: read-out: EGFR-TK inhibition IC50. (In general: ADP-Glo first removes unused ATP, then detects ADP through luciferase.)

T1 sequence (P00533 696-1022 limits assumed): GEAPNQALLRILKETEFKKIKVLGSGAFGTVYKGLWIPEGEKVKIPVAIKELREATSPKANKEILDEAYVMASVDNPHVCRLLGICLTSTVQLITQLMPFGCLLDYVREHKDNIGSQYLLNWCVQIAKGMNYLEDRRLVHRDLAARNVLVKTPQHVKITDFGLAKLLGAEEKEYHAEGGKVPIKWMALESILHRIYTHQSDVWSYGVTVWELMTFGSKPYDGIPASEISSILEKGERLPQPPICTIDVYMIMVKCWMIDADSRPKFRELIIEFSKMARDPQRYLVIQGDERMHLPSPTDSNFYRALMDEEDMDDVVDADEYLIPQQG

Regarding `C=C(C)[C@@H]1CCC(C)=C[C@H]1c1c(O)cc(CCCCC)cc1O` [CBD], the Kd in assay [1] turned out to be 8350 nM. Besides, the IC50 in assay [2] turned out to be 32.6 ± 3.16 nM.

In assay [1], `CCCCCc1cc(O)c2c(c1)OC(C)(C)c1ccc(C)cc1-2` [CBN] came in with a Kd of 32100 nM. Moreover, the concentration for half-maximal inhibition (IC50) in assay [2] turned out to be 78.8 ± 2.2 nM.

Consider `CCCCCc1cc(O)c(C/C=C(\C)CCC=C(C)C)c(O)c1` [CBG], for which, in assay [1], the Kd worked out at 5610 nM. Moreover, in assay [2], the IC50 was found to be 29.9 ± 2.1 nM.

For orientation: Kd means the concentration at which binding is half-saturated. By IC50 is commonly meant the midpoint of a concentration-inhibition curve.
